Like-named read-outs stand apart in the source and are kept apart here. Each block holds one compound with its values, some of them ahead of it.
Key:
[1] = system: Bacillus pumilus strain K-1; test: Inhibition of bacterial growth, filter paper on inoculated agar plates; type: cell-based; conditions: for zone of inhibition at 1000 µM / zone of inhibition at 100 µM: Bacillus pumilus, read-out: Diameter of Inhibition
Experimental: Nutrient broth was prepared by mixing 8 grams of BACTO dehydrated nutrient broth per liter of distilled water. […] Samples of the nutrient broth were then inoculated with Bacillus pumilus strain K-1 culture. […]
Nutrient agar was prepared by mixing 23 grams of BACTO nutrient agar per liter of distilled water. The nutrient agar was sterilized in the same way as the nutrient broth. After it has cooled to about 45° C. 250 ml of the nutrient agar solution was aeseptically inoculated with 5 ml of the Bacillus pumilus, K-1 culture prepared in (A), above. Plates of the inoculated nutrient agar were then poured and allowed to harden.
[…] To minimize possible photocatalyzed reactions of the dyes, all preparations were performed under yellow lights and all incubations were performed in the dark.
Schleider and Schuell #740-E filter paper (12.7 mm diameter) was dipped in the dye solution, touched to the side of the beaker to removed excess dye, and placed in the center of the inoculated agar plates (prepared in (B) above). […] The plates were then examined to determine if bacterial growth had been affected by the dye-containing filter paper. […]
Control plates were prepared in which the filter paper contained methanol or a 0.2 molar aqueous solution of phenol. […]

[2] = not told
Experimental: If a published reduction potential is not available, suitable techniques for measuring reduction potential are available and can be used. […] This technique involves measurement at 20° C., of an approximately 10^-4 molar solution of the dye in an electrolyte, such as methanol which is 0.05 molar in lithium chloride, using a dropping mercury electrode. The potential values are reported by reference to a silver-silver chloride electrode in a saturated solution of potassium chloride at 20° C.

[3] = system: Bacillus pumilus (K-1)
Experimental: This can be accomplished by contacting a given concentration of the dye with the cells, removing the cells from the dye solution and then comparing the optical density (at λmax) of the remaining dye solution with a control containing the original concentration of the dye. The percentage decrease in optical density indicates the percentage of dye which has been bound to the cells.
The culture was collected by centrifugation at 5,000×g. for 10 minutes, and the resultant pellet was washed several times in cold 0.05 M potassium phosphate buffer, pH 7.0. The pellet was resuspended in the buffer solution to a final optical density of 1.0 at 620 nm as measured with a Bausch and Lomb Spectronic 20.
One-tenth ml of dye solution (1 mg/ml in methanol) was added to a tube containing 5 ml of cell suspension described above and a control tube containing 0.05 M potassium phosphate buffer, pH 7.0. All tubes were well agitated using a Vari-Whirl Mixer (Will Scientific Co.) and then centrifuged at 10,000×g. for 10 minutes.
The percent binding of dye to the cells for each dye, was determined by comparison of the density at λmax of the control supernatant sample with the density at λmax of the supernatant of the cell sample.

[4] = K1, 72 h, Tables V and VI, 10^-3 molar, three days
[5] = Tables V and VI, 10^-3 molar, three days
[6] = K1, Table II, 10^-4 molar, 26° C., forty-eight hours

SMILES: CCN1C(=CC=Cc2oc3cccc(OC(C)=O)c3[n+]2CC)Oc2cccc(OC(C)=O)c21 [7,4,4'-diacetoxy]
zone of inhibition at 1000 µM [1, 4]: 15 mm

SMILES: CCN1C(=CC=Cc2oc3cccc(O)c3[n+]2CC)Oc2cccc(O)c21 [7,4,4'-dihydroxy]
zone of inhibition at 1000 µM [1, 4]: 13 mm

SMILES: CCN1C(=CC=Cc2oc3ccc(NC(C)=O)cc3[n+]2CC)Oc2ccc(NC(C)=O)cc21 [7,5,5'-acetamido]
Diameter of Inhibition [1, 5]: None

SMILES: CCN1C(=CC=Cc2oc3ccc(OC(C)=O)cc3[n+]2CC)Oc2ccc(OC(C)=O)cc21 [7,5,5'-diacetoxy]
zone of inhibition at 1000 µM [1, 4]: 30.5 mm
ER [2]: -1.18

SMILES: CCN1C(=CC=Cc2oc3ccc(Br)cc3[n+]2CC)Oc2ccc(Br)cc21 [7,5,5'-dibromo]
zone of inhibition at 1000 µM [1, 4]: 22.5 mm

SMILES: CN1C(=CC=Cc2oc3ccc(C(=O)O)cc3[n+]2C)Oc2ccc(C(=O)O)cc21 [7,5,5'-dicarboxy-N,N'-methyl]
Diameter of Inhibition [1, 5]: None

SMILES: CCN1C(=CC=Cc2oc3ccc(Cl)cc3[n+]2CC)Oc2ccc(Cl)cc21 [7,5,5'-dichloro]
zone of inhibition at 1000 µM [1, 4]: 26.5 mm

ER [2]: -.99
SMILES: CN1C(=CC=Cc2oc3ccc(C#N)cc3[n+]2C)Oc2ccc(C#N)cc21 [7,5,5'-dicyano-N,N'-methyl]
Diameter of Inhibition [1, 5]: None

SMILES: CCOc1ccc2c(c1)N(CC)C(=CC=Cc1oc3ccc(OCC)cc3[n+]1CC)O2 [7,5,5'-diethoxy]
zone of inhibition at 1000 µM [1, 4]: 14 mm

SMILES: CCc1ccc2c(c1)N(CC)C(=CC=Cc1oc3ccc(CC)cc3[n+]1CC)O2 [7,5,5'-diethyl]
zone of inhibition at 1000 µM [1, 4]: 23 mm

SMILES: CCN1C(=CC=Cc2oc3ccc(O)cc3[n+]2CC)Oc2ccc(O)cc21 [7,5,5'-dihydroxy]
zone of inhibition at 1000 µM [1, 4]: 14 mm

SMILES: CCN1C(=CC=Cc2oc3ccc(OC)cc3[n+]2CC)Oc2ccc(OC)cc21 [7,5,5'-dimethoxy]
zone of inhibition at 1000 µM [1, 4]: 23.5 mm

SMILES: CN1C(=CC=Cc2oc3ccc([N+](=O)[O-])cc3[n+]2C)Oc2ccc([N+](=O)[O-])cc21 [7,5,5'-dinitro-N,N'-methyl]
Diameter of Inhibition [1, 5]: None

SMILES: CCN1C(=CC=Cc2oc3ccc(-c4ccccc4)cc3[n+]2CC)Oc2ccc(-c3ccccc3)cc21 [7,5,5'-diphenyl]
Diameter of Inhibition [1, 5]: None

ER [2]: -1.27
SMILES: CCN1C(=CC=Cc2oc3ccc(S(=O)(=O)[O-])cc3[n+]2CC)Oc2ccc(S(=O)(=O)O)cc21 [7,5,5'-disulfo]
Diameter of Inhibition [1, 5]: None

SMILES: CCOc1ccc2c(c1)OC(=CC=Cc1oc3cc(OCC)ccc3[n+]1CC)N2CC [7,6,6'-diethoxy]
zone of inhibition at 1000 µM [1, 4]: 16 mm

SMILES: CN1C(=CC=Cc2oc3cc([N+](=O)[O-])ccc3[n+]2C)Oc2cc([N+](=O)[O-])ccc21 [7,6,6'-dinitro-N,N'-methyl]
Diameter of Inhibition [1, 5]: None

SMILES: CCN1C(=CC=Cc2oc3cc(-c4ccccc4)ccc3[n+]2CC)Oc2cc(-c3ccccc3)ccc21 [7,6,6'-diphenyl]
Diameter of Inhibition [1, 5]: None

SMILES: CCN1C(=CC=Cc2oc3c(-c4ccccc4)cccc3[n+]2CC)Oc2c(-c3ccccc3)cccc21 [7,7,7'-diphenyl]
Diameter of Inhibition [1, 5]: None

SMILES: CCN1C(=CC=Cc2sc3cccc(OC)c3[n+]2CC)Sc2cccc(OC)c21 [17,4,4'-dimethoxy]
zone of inhibition at 1000 µM [1, 4]: 17.5 mm

SMILES: CCN1C(=CC=Cc2sc3cc(OC)c(OC)cc3[n+]2CC)Sc2cc(OC)c(OC)cc21 [17,5,5',6,6'-tetramethoxy]
Diameter of Inhibition [1, 5]: None

SMILES: CCN1C(=CC=Cc2sc3ccc(OC(C)=O)cc3[n+]2CC)Sc2ccc(OC(C)=O)cc21 [17,5,5'-diacetoxy]
zone of inhibition at 1000 µM [1, 4]: 15 mm

SMILES: CCN1C(=CC=Cc2sc3ccc(Br)cc3[n+]2CC)Sc2ccc(Br)cc21 [17,5,5'-dibromo]
zone of inhibition at 1000 µM [1, 4]: 13.5 mm

SMILES: CCN1C(=CC=Cc2sc3ccc(OC)cc3[n+]2CC)Sc2ccc(OC)cc21 [17,5,5'-dimethoxy]
zone of inhibition at 1000 µM [1, 4]: 14.5 mm

SMILES: CCN1C(=CC=Cc2sc3ccc(C)cc3[n+]2CC)Sc2ccc(C)cc21 [17,5,5'-dimethyl]
zone of inhibition at 1000 µM [1, 4]: 14 mm

SMILES: CCN1C(=CC=Cc2sc3cc(NC(C)=O)ccc3[n+]2CC)Sc2cc(NC(C)=O)ccc21 [17,6,6'-diacetamido]
Diameter of Inhibition [1, 5]: None

SMILES: CCN1C(=CC=Cc2sc3cc(OC(C)=O)ccc3[n+]2CC)Sc2cc(OC(C)=O)ccc21 [17,6,6'-diacetoxy]
zone of inhibition at 1000 µM [1, 4]: 17 mm

SMILES: CN1C(=CC=Cc2sc3cc(N)ccc3[n+]2C)Sc2cc(N)ccc21 [17,6,6'-diamino-N,N'-dimethyl]
Diameter of Inhibition [1, 5]: None

ER [2]: -.88
SMILES: CCN1C(=CC=Cc2sc3cc(Br)ccc3[n+]2CC)Sc2cc(Br)ccc21 [17,6,6'-dibromo]
Diameter of Inhibition [1, 5]: None

ER [2]: -.87
SMILES: CCN1C(=CC=Cc2sc3cc(Cl)ccc3[n+]2CC)Sc2cc(Cl)ccc21 [17,6,6'-dichloro]
zone of inhibition at 1000 µM [1, 4]: 14 mm

SMILES: CN1C(=CC=Cc2sc3cc(C#N)ccc3[n+]2C)Sc2cc(C#N)ccc21 [17,6,6'-dicyano-N,N'-dimethyl]
Diameter of Inhibition [1, 5]: None

SMILES: CCOc1ccc2c(c1)SC(=CC=Cc1sc3cc(OCC)ccc3[n+]1CC)N2CC [17,6,6'-diethoxy]
zone of inhibition at 1000 µM [1, 4]: 15 mm

ER [2]: -1.06
SMILES: CCN1C(=CC=Cc2sc3cc(F)ccc3[n+]2CC)Sc2cc(F)ccc21 [17,6,6'-difluoro]
zone of inhibition at 1000 µM [1, 4]: 18 mm

SMILES: CCN1C(=CC=Cc2sc3cc(O)ccc3[n+]2CC)Sc2cc(O)ccc21 [17,6,6'-dihydroxy]
zone of inhibition at 1000 µM [1, 4]: 15.5 mm

SMILES: CCN1C(=CC=Cc2sc3cc(OC)ccc3[n+]2CC)Sc2cc(OC)ccc21 [17,6,6'-dimethoxy]
zone of inhibition at 1000 µM [1, 4]: 15 mm

SMILES: CCN1C(=CC=Cc2sc3cc(C)ccc3[n+]2CC)Sc2cc(C)ccc21 [17,6,6'-dimethyl]
zone of inhibition at 1000 µM [1, 4]: 15 mm

SMILES: CCN1C(=CC=Cc2sc3cc(S(=O)(=O)O)ccc3[n+]2CC)Sc2cc(S(=O)(=O)[O-])ccc21 [17,6,6'-disulfo]
Diameter of Inhibition [1, 5]: None

SMILES: CCN1C(=CC=Cc2sc3c(OC)cccc3[n+]2CC)Sc2c(OC)cccc21 [17,7,7'-dimethoxy]
zone of inhibition at 1000 µM [1, 4]: 14.5 mm

SMILES: CCN1C(=CC=Cc2sc3c(N(C)C)cccc3[n+]2CC)Sc2c(N(C)C)cccc21 [17,7,7'-dimethylamino]
zone of inhibition at 1000 µM [1, 4]: 14 mm

ER [2]: -.84
SMILES: CCN1C(=CC=Cc2sc3cc(I)ccc3[n+]2CC)Sc2cc(I)ccc21 [17, 6.6'-diiodo]
Diameter of Inhibition [1, 5]: None

SMILES: CCN1C(=CC=Cc2sc3ccccc3[n+]2CC)Sc2ccccc21 [17, ClO4^-]
zone of inhibition at 1000 µM ([1]; K1, 72 h, Table IV, 10^-3 molar, three days, differing anions): 19 mm

% Bound [3]: 31.8%
ER [2]: -1.60
reduction potential (ER) [2]: -1.60 volts
SMILES: CCN1C(=Cc2sc3ccc4ccccc4c3[n+]2CC)Sc2ccc3ccccc3c21 [Dye 2]
Activity Rating [1]: 0
Diameter of Inhibition ([1]; Table II, 10^-4 molar, 26° C., forty-eight hours): None
Diameter of Inhibition ([1]; Table IX, 10^-3 M): None
Diameter of Inhibition ([1]; Table IX, 10^-4 M): None

% Bound [3]: 3.3%
reduction potential (ER) [2]: -1.27 volts
SMILES: CCN1C(=CC=Cc2oc3ccc(S(=O)(=O)O)cc3[n+]2CC)Oc2ccc(S(=O)(=O)[O-])cc21 [Dye 6]
Activity Rating [1]: 0
Diameter of Inhibition ([1]; Table IX, 10^-3 M): None

% Bound [3]: 2.6%
reduction potential (ER) [2]: -1.26 volts
SMILES: CCN1C(=CC=Cc2oc3cc(S(=O)(=O)O)ccc3[n+]2CC)Oc2cc(S(=O)(=O)[O-])ccc21 [Dye 8]
Activity Rating [1]: 0
Diameter of Inhibition ([1]; Table IX, 10^-3 M): None

% Bound [3]: 95.1%
ER [2]: -1.18
reduction potential (ER) [2]: -1.18 volts
SMILES: CCN1C(=CC=Cc2oc3cc(Cl)ccc3[n+]2CC)Oc2cc(Cl)ccc21 [Dye 9]
Activity Rating [1]: 71
zone of inhibition at 1000 µM ([1]; K1, Table IX, 10^-3 M): 30.5 mm

% Bound [3]: 68.8%
ER [2]: -1.17
reduction potential (ER) [2]: -1.17 volts
SMILES: CCN1C(=CC=Cc2oc3ccc(OC(C)=O)cc3[n+]2CC)Oc2ccc(OC(C)=O)cc21 [Dye 10]
Activity Rating [1]: 80
zone of inhibition at 1000 µM ([1]; K1, Table IX, 10^-3 M): 28.5 mm

% Bound [3]: 98.9%
ER [2]: -1.16
reduction potential (ER) [2]: -1.16 volts
SMILES: CCN1C(=CC(C)=Cc2sc3ccccc3[n+]2CC)Sc2ccccc21 [Dye 11]
Activity Rating [1]: 25
zone of inhibition at 100 µM [1, 6]: 18 mm
zone of inhibition at 100 µM ([1]; K1, Table IX, 10^-4 M): 18 mm

% Bound [3]: 58.3%
ER [2]: -1.08
reduction potential (ER) [2]: -1.08 volts
SMILES: CCN1C(=Cc2sc3ccccc3[n+]2C)C=Cc2ccccc21 [Dye 14]
Activity Rating [1]: 11
zone of inhibition at 100 µM [1, 6]: 15 mm
zone of inhibition at 100 µM ([1]; K1, Table IX, 10^-4 M): 15 mm

Reference: patent US4232121A, “Process for selecting methine dyes which inhibit cell growth” (Eastman Kodak Company, priority 1978, dated 1980)
